These compounds were tested against T1, active p38 alpha enzyme (Upstate Biotechnology) (Homo sapiens, UniProt Q16539) (assay: p38α biochemical assay (ATP turnover, luminescent detection, Cambrex PKlight)). Conditions: p38α biochemical assay, Table 1 Biological Activity.
T1 construct: purchased Upstate Biotechnology
In short: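 p38α + MapkapK2 (whole protein substrate) + 1.4 uM ATP final; Tris/MOPS buffer with MgCl2, CaCl2, EGTA, EDTA, glycerol, β-ME, BSA; 2 h at 30C; luminescent detection of remaining ATP.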

T1 sequence (Q16539 whole entry): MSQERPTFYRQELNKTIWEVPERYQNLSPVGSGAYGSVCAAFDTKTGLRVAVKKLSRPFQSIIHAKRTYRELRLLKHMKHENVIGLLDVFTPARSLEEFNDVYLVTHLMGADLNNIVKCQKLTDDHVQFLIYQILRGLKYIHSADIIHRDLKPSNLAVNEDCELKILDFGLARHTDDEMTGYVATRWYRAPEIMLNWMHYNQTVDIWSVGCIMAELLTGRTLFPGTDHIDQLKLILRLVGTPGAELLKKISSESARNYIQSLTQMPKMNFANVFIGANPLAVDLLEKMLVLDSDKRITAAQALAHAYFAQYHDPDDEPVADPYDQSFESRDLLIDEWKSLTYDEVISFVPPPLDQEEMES

Question: `CC(C)NC(=O)c1csc(-c2c(-c3ccc(F)cc3)noc2CNC(=O)CC#N)n1` [Example 575] was tested. Which IC50 did it give?
Answer: ≤ 1 µM

Question: For `COc1ccc(O)c(C(=O)NCc2nc(-c3ccc(F)cc3)c(-c3nc(C(=O)NC(C)C)cs3)o2)c1` [Example 187], which IC50 is on record?
Answer: > 1 µM

Question: `CC(CC(=O)NCc1onc(-c2ccc(F)cc2)c1-c1nc(C(=O)NC(C)C)cs1)CC(C)(C)C` (centres unmarked) [Example 637] was tested. Which IC50 did it give?
Answer: > 1 µM

Question: `CC(C)NC(=O)c1csc(-c2oc(CN3CCN(C(=O)CC4Cc5ccccc5C4)CC3)nc2-c2ccc(F)cc2)n1` [Example 440] was tested. Which IC50 did it give?
Answer: ≤ 1 µM

Question: With `CC(C)NC(=O)c1csc(-c2c(-c3ccc(F)cc3)noc2CNC(=O)c2c(F)cccc2Cl)n1` [Example 675] as the compound, how does the IC50 read?
Answer: > 1 µM

Question: For `CC(C)NC(=O)c1csc(-c2oc(CNC(=O)c3ccc(Cl)cc3Cl)nc2-c2ccc(F)cc2)n1` [Example 252], which IC50 is on record?
Answer: ≤ 1 µM

Question: Which IC50 does the source give for `CC(=O)Nc1cccc(C(=O)NCc2nc(-c3ccc(F)cc3)c(-c3nc(C(=O)NC(C)C)cs3)o2)c1` [Example 211] here?
Answer: > 1 µM

Question: For `CC(C)NC(=O)c1csc(-c2c(-c3ccc(F)cc3)noc2CNC(=O)c2cc(Br)ccc2Cl)n1` [Example 795], which IC50 is on record?
Answer: > 1 µM

Question: How did the IC50 turn out when `Cc1cccc(C(=O)N2CCN(Cc3nc(-c4ccc(F)cc4)c(-c4nc(C(=O)NC(C)C)cs4)o3)CC2)c1[N+](=O)[O-]` [Example 458] was run?
Answer: > 1 µM

Question: Which IC50 does the source give for `CC(C)NC(=O)c1csc(-c2oc(CN3CCN(C(=O)C(C)NC(=O)OC(C)(C)C)CC3)nc2-c2ccc(F)cc2)n1` (centres unmarked) [Example 485] here?
Answer: > 1 µM

Question: Which IC50 does the source give for `CC(C)NC(=O)c1csc(-c2oc(CN(C)C)nc2-c2ccc(F)cc2)n1` [Example 42, 2-|2-Dimethylaminomethyl-4-(4-fluoro-phenyl)-oxazol-5-yl|-thiazole-4-carboxylic acid isopropylamide] here?
Answer: ≤ 1 µM

Question: For `CC(C)NC(=O)c1csc(-c2oc(CNC(=O)CCc3cccc(Br)c3)nc2-c2ccc(F)cc2)n1` [Example 310], which IC50 is on record?
Answer: > 1 µM

Question: How did the IC50 turn out when `CCCCCc1ccc(C(=O)NCc2onc(-c3ccc(F)cc3)c2-c2nc(C(=O)NC(C)C)cs2)cc1` [Example 732] was run?
Answer: > 1 µM

Question: With `CC(C)NC(=O)c1csc(-c2c(-c3ccc(F)cc3)noc2CNC(=O)Cc2ccc(Br)cc2)n1` [Example 769] as the compound, how does the IC50 read?
Answer: > 1 µM

Same assay, conditions: p38α kinase; Table 1 Biological Activity

Question: Which IC50 does the source give for `Cc1nc(-c2ccc(F)cc2)c(-c2nc(C(=O)NCCN3CCCC3)cs2)s1` [Example 1748] here?
Answer: ≤ 1 µM

Question: Which IC50 does the source give for `Cc1nc(-c2ccc(F)cc2)c(-c2nc(C(=O)N3CCN(c4cccc(C(F)(F)F)c4)CC3)cs2)s1` [Example 1948] here?
Answer: > 1 µM

Question: How did the IC50 turn out when `CC(C)NC(=O)c1csc(-c2oc(CN3CC(C)OC(C)C3)nc2-c2ccc(F)cc2)n1` (centres unmarked) [Example 1213] was run?
Answer: > 1 µM

Question: With `CCOC(=O)CC1C(=O)NCCN1C(=O)c1csc(-c2sc(C)nc2-c2ccc(F)cc2)n1` (centres unmarked) [Example 1908] as the compound, how does the IC50 read?
Answer: ≤ 1 µM

Question: Which IC50 does the source give for `CC(C)NC(=O)c1csc(-c2oc(CNN3CCN(C)CC3)nc2-c2ccc(F)cc2)n1` [Example 1094] here?
Answer: > 1 µM

Question: `CC(C)NC(=O)c1csc(-c2oc(CN[C@@H](C)c3ccccc3)nc2-c2ccc(F)cc2)n1` [Example 1097] was tested. Which IC50 did it give?
Answer: > 1 µM

Question: `CC(C)NC(=O)c1csc(-c2c(-c3ccc(F)cc3)n[nH]c2C2CCN(C(=O)c3ccc(Cl)cc3O)CC2)n1` [Example 909] was tested. Which IC50 did it give?
Answer: > 1 µM

Question: With `Cc1nc(-c2ccc(F)cc2)c(-c2nc(C(=O)NC(C)CO)cs2)s1` (centres unmarked) [Example 1719] as the compound, how does the IC50 read?
Answer: ≤ 1 µM

Question: Which IC50 does the source give for `COc1ccccc1CCNC(=O)c1csc(-c2c(-c3ccc(F)cc3)n[nH]c2C2CCNCC2)n1` [Example 2123] here?
Answer: > 1 µM

Question: With `CC(C)NC(=O)c1csc(-c2c(-c3ccc(F)cc3)n[nH]c2C2CCN(C(=O)c3cccc(Br)n3)CC2)n1` [Example 990] as the compound, how does the IC50 read?
Answer: > 1 µM

Question: For `CC(C)NC(=O)c1csc(-c2c(-c3ccc(F)cc3)noc2CNC2CCN(Cc3ccccc3)CC2)n1` [Example 1501], which IC50 is on record?
Answer: > 1 µM

Question: How did the IC50 turn out when `COc1ccc(OC)c(CCNC(=O)c2csc(-c3sc(C)nc3-c3ccc(F)cc3)n2)c1` [Example 1823] was run?
Answer: ≤ 1 µM

Question: With `CC(C)NC(=O)c1csc(-c2c(-c3ccc(F)cc3)n[nH]c2C2CCN(C(=O)c3ccccc3Cl)CC2)n1` [Example 865] as the compound, how does the IC50 read?
Answer: > 1 µM

Question: Which IC50 does the source give for `Cc1c(Cl)cccc1NCc1onc(-c2ccc(F)cc2)c1-c1nc(C(=O)NC(C)C)cs1` [Example 1667] here?
Answer: > 1 µM

Question: How did the IC50 turn out when `CC(C)NC(=O)c1csc(-c2oc(CNCCN3CCOCC3)nc2-c2ccc(F)cc2)n1` [Example 1110] was run?
Answer: > 1 µM

Question: For `Cc1nc(-c2ccc(F)cc2)c(-c2nc(C(=O)N3CCC[C@@H]3CO)cs2)s1` [Example 1851], which IC50 is on record?
Answer: > 1 µM

Question: Which IC50 does the source give for `CC(C)NC(=O)c1csc(-c2c(-c3ccc(F)cc3)n[nH]c2C2CCN(C(=O)C(O)CCl)CC2)n1` (centres unmarked) [Example 829] here?
Answer: ≤ 1 µM

Question: With `CC(C)NC(=O)c1csc(-c2c(-c3ccc(F)cc3)noc2CN2C(C)CCCC2C)n1` (centres unmarked) [Example 1533] as the compound, how does the IC50 read?
Answer: > 1 µM

Question: Which IC50 does the source give for `O=C(NC1CCCCC1)c1csc(-c2c(-c3ccc(F)cc3)n[nH]c2C2CCNCC2)n1` [Example 2055] here?
Answer: > 1 µM

Question: How did the IC50 turn out when `Cc1ccc(C)c(CNCc2nc(-c3ccc(F)cc3)c(-c3nc(C(=O)NC(C)C)cs3)o2)c1` [Example 1114] was run?
Answer: > 1 µM

Question: With `Cc1ccc(N2CCN(Cc3nc(-c4ccc(F)cc4)c(-c4nc(C(=O)NC(C)C)cs4)o3)CC2)cc1C` [Example 1266] as the compound, how does the IC50 read?
Answer: > 1 µM

Question: With `CC(C)NC(=O)c1csc(-c2c(-c3ccc(F)cc3)noc2CNCCN)n1` [Example 1389] as the compound, how does the IC50 read?
Answer: > 1 µM

Question: `CC(C)NC(=O)c1csc(-c2c(-c3ccc(F)cc3)n[nH]c2C2CCN(C(=O)c3cnc[nH]3)CC2)n1` [Example 819] was tested. Which IC50 did it give?
Answer: > 1 µM

Question: How did the IC50 turn out when `CC(C)NC(=O)c1csc(-c2c(-c3ccc(F)cc3)n[nH]c2C2CCN(C(=O)C=O)CC2)n1` [Example 813] was run?
Answer: ≤ 1 µM

Question: For `COc1ccc(C(=O)CNC(=O)c2csc(-c3c(-c4ccc(F)cc4)n[nH]c3C3CCNCC3)n2)cc1` [Example 2154], which IC50 is on record?
Answer: > 1 µM

Question: How did the IC50 turn out when `CC(C)NC(=O)c1csc(-c2oc(CNC3CC3)nc2-c2ccc(F)cc2)n1` [Example 1053] was run?
Answer: > 1 µM

Question: `CC(C)NC(=O)c1csc(-c2c(-c3ccc(F)cc3)noc2CNc2ccc(F)cc2F)n1` [Example 1654] was tested. Which IC50 did it give?
Answer: > 1 µM

Question: Which IC50 does the source give for `COCC(=O)N1CCC(c2[nH]nc(-c3ccc(F)cc3)c2-c2nc(C(=O)NC(C)C)cs2)CC1` [Example 2173, 2-{3-(4-Fluoro-phenyl)-5-|1-(2-methoxy-acetyl)-piperidin-4-yl|-1H-pyrazol-4-yl}-thiazole-4-carboxylic acid isopropylamide] here?
Answer: ≤ 1 µM

Question: For `Cc1nc(-c2ccc(F)cc2)c(-c2nc(C(=O)N3CCC(C)CC3)cs2)s1` [Example 1848], which IC50 is on record?
Answer: > 1 µM

Question: `CC(C)NC(=O)c1csc(-c2c(-c3ccc(F)cc3)n[nH]c2C2CCN(C(=O)c3cnc(O)c(Cl)c3)CC2)n1` [Example 912] was tested. Which IC50 did it give?
Answer: > 1 µM

Question: For `COCCOCn1nc(-c2ccc(F)cc2)c(-c2nc(C=O)cs2)c1C` [Example 2161, 2-|3-(4-Fluoro-phenyl)-1-(2-methoxy-ethoxymethyl)-5-methyl-1H-pyrazol-4-yl|-thiazole-4-carbaldehyde], which IC50 is on record?
Answer: > 1 µM

Question: With `Cc1ccc(CNCc2onc(-c3ccc(F)cc3)c2-c2nc(C(=O)NC(C)C)cs2)cc1` [Example 1432] as the compound, how does the IC50 read?
Answer: > 1 µM

Question: How did the IC50 turn out when `NS(=O)(=O)c1ccc(CCNC(=O)c2csc(-c3c(-c4ccc(F)cc4)n[nH]c3C3CCNCC3)n2)cc1` [Example 2153] was run?
Answer: > 1 µM

Question: Which IC50 does the source give for `CCC(CO)NC(=O)c1csc(-c2c(-c3ccc(F)cc3)n[nH]c2C2CCNCC2)n1` (centres unmarked) [Example 2051] here?
Answer: ≤ 1 µM

Question: With `Cc1cccnc1NCc1nc(-c2ccc(F)cc2)c(-c2nc(C(=O)NC(C)C)cs2)o1` [Example 1314] as the compound, how does the IC50 read?
Answer: > 1 µM

Question: `CC(C)NC(=O)c1csc(-c2c(-c3ccc(F)cc3)noc2CNC2CCC2)n1` [Example 1391] was tested. Which IC50 did it give?
Answer: > 1 µM

— US20060252807A1, “Novel ortho-terphenyl inhibitors of p38 kinase and methods of treating inflammatory disorders” (Kalypsys, Inc., priority 2005, published 2006)
